The record followed here is ChEMBL document CHEMBL1201862, “PubChem BioAssay data set” (2004).

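Five concentrations, 48 hours, 96-well plates. GI50: concentration for 50% inhibition of growth.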 Activity calls are given as the source filed them. Rule as the data show it: active = GI50 up to about 1.1 µM and inactive = higher.

Test systems include SF-268; HCT-15; BT-549; MDA-MB-435; SF-539; SK-MEL-28; EKVX; SK-OV-3; MDA-MB-231; SK-MEL-2; A549; HCT-116; MOLT-4; NCI-H23; OVCAR-5; NCI-H460; K562.
What all share (assay): growth of human tumour cells (NCI), 48 h

Regarding `CCOC(=O)Cn1c(C(F)(F)F)nc2nc(Cl)c(Cl)nc21`, the GI50 with SF-268 is 34 µM (inactive); in the experiment with HCT-15 it was 37.2 µM; in the experiment with BT-549 it was 54.8 µM (inactive); in the experiment with MDA-MB-435, 32.5 µM (inactive); in the experiment with SF-539, > 55.7 µM (inactive); with SK-MEL-28 it was 48.9 µM (inactive). Also, the GI50 with EKVX is 10.5 µM (inactive); in the experiment with SK-OV-3, 49.1 µM (inactive); in the experiment with MDA-MB-231, 58.9 µM (inactive); in the experiment with SK-MEL-2, 24.7 µM (inactive); in the experiment on A549 it was 47.8 µM (inactive); in the experiment with HCT-116, 38.9 µM (inactive). In addition, the GI50 with MOLT-4 was 26.6 µM (inactive); with NCI-H23, 27 µM (inactive); in the experiment with OVCAR-5, > 100 µM (inactive); with NCI-H460, 27.9 µM (inactive); in the experiment with K562 it was 26.7 µM (inactive).
As to `C=C1CC/C=C(\C)CCC[C@H](C)[C@@H](O)[C@@H]2OC(=O)C(=C)[C@@H]2C[C@H]1O`, the GI50 is 8.26 µM (inactive) with SF-268; 3.42 µM with HCT-15; 0.288 µM (active) with BT-549; 3.62 µM (inactive) in the experiment on MDA-MB-435; 2.27 µM (inactive) in the experiment on SF-539; 2.99 µM (inactive) in the experiment with SK-MEL-28. Also, the GI50 in the experiment on EKVX was 5.73 µM (inactive); in the experiment on SK-OV-3, 29.8 µM (inactive); with MDA-MB-231 it was 14.9 µM (inactive); in the experiment with SK-MEL-2, 13.3 µM (inactive); in the experiment on A549 it was 17.1 µM (inactive); in the experiment with HCT-116 it was 6.47 µM (inactive). Moreover, the GI50 is 2.13 µM (inactive) in the experiment on MOLT-4; 12.5 µM (inactive) in the experiment on NCI-H23; 17.3 µM (inactive) in the experiment on OVCAR-5; 8.99 µM (inactive) in the experiment with NCI-H460; 2.99 µM (inactive) in the experiment with K562.
In the case of `O=C(O)c1nn[nH]c1Cl`, the GI50 in the experiment on SF-268 was > 100 µM (inactive); with HCT-15 it was above 100 µM; in the experiment with BT-549 it was > 100 µM (inactive); in the experiment on MDA-MB-435, > 100 µM (inactive); in the experiment with SF-539, > 100 µM (inactive); with SK-MEL-28, > 100 µM (inactive). Further, the GI50 in the experiment with EKVX, with SK-OV-3, in the experiment on MDA-MB-231, with SK-MEL-2, in the experiment on A549 and in the experiment on HCT-116 was > 100 µM (inactive) in each case. In addition, the GI50 with MOLT-4 was > 10 µM (inactive); in the experiment with NCI-H23 it was > 100 µM (inactive); in the experiment with OVCAR-5 it was > 100 µM (inactive); in the experiment on NCI-H460, > 100 µM (inactive); with K562 it was > 100 µM (inactive).
Turning to `CC(C)[Si](OCC/C=C/C1CCC(=O)C1C(O)C1CCCCC1)(C(C)C)C(C)C` (stereo unspecified), the GI50 in the experiment with SF-268 is 7.13 µM (inactive); in the experiment with HCT-15 it was 16.3 µM; with BT-549, 18.9 µM (inactive); with MDA-MB-435, 17.9 µM (inactive); in the experiment with SF-539, 19.8 µM (inactive); in the experiment with SK-MEL-28 it was 15.1 µM (inactive). The GI50 in the experiment on EKVX is 15.5 µM (inactive); in the experiment on SK-OV-3, 15.7 µM (inactive); in the experiment on MDA-MB-231, 18.8 µM (inactive); with SK-MEL-2 it was 12.9 µM (inactive); in the experiment on A549 it was 13.8 µM (inactive); with HCT-116 it was 14.7 µM (inactive). In addition, the GI50 in the experiment on MOLT-4 was 12.5 µM (inactive); in the experiment on NCI-H23 it was 15.6 µM (inactive); in the experiment on OVCAR-5, 18.2 µM (inactive); in the experiment on NCI-H460, 17 µM (inactive); in the experiment with K562, 17.2 µM (inactive).
With `O=C(/C=C/c1ccc([N+](=O)[O-])cc1)N1CCN(CCOC(c2ccc(F)cc2)c2ccc(F)cc2)CC1`, the GI50 was > 100 µM (inactive) in the experiment with SF-268; 19.1 µM with HCT-15; > 100 µM (inactive) in the experiment on BT-549; 9.84 µM (inactive) in the experiment on MDA-MB-435; 45.9 µM (inactive) with SF-539; > 100 µM (inactive) with SK-MEL-28. In addition, the GI50 with EKVX was > 100 µM (inactive); with SK-OV-3 it was > 100 µM (inactive); with MDA-MB-231, > 100 µM (inactive); in the experiment with SK-MEL-2, > 100 µM (inactive); with A549 it was 12 µM (inactive); with HCT-116, 9.64 µM (inactive). Besides, the GI50 was 3.6 µM (inactive) in the experiment on MOLT-4; > 100 µM (inactive) with NCI-H23; > 100 µM (inactive) in the experiment with OVCAR-5; 11.3 µM (inactive) in the experiment with NCI-H460; 4.99 µM (inactive) in the experiment with K562.
Consider `COc1ccc(/C=C(/C#N)C(N)=O)c(OC)c1`, for which the GI50 was > 100 µM (inactive) in the experiment on SF-268; 60.8 µM in the experiment on HCT-15; > 100 µM (inactive) in the experiment on BT-549; 23.5 µM (inactive) with MDA-MB-435; > 100 µM (inactive) in the experiment with SF-539; > 100 µM (inactive) in the experiment with SK-MEL-28. Besides, the GI50 was > 100 µM (inactive) in the experiment with EKVX; > 100 µM (inactive) with SK-OV-3; > 100 µM (inactive) in the experiment with MDA-MB-231; 50.4 µM (inactive) in the experiment with SK-MEL-2; > 100 µM (inactive) in the experiment on A549; 64 µM (inactive) in the experiment on HCT-116. The GI50 in the experiment on MOLT-4 is > 100 µM (inactive); with NCI-H23, > 100 µM (inactive); with OVCAR-5, > 100 µM (inactive); in the experiment with NCI-H460 it was > 100 µM (inactive); in the experiment on K562 it was 31.8 µM (inactive).
`Cc1cccc(NC(=S)Nc2ccc(Cl)cc2)n1`: the GI50 was > 100 µM (inactive) with SF-268; above 100 µM in the experiment with HCT-15; > 100 µM (inactive) in the experiment with BT-549; > 100 µM (inactive) with MDA-MB-435; > 100 µM (inactive) with SF-539; > 100 µM (inactive) in the experiment with SK-MEL-28. The GI50 in the experiment on EKVX, in the experiment with SK-OV-3, with MDA-MB-231, in the experiment on SK-MEL-2, in the experiment on HCT-116 and in the experiment with MOLT-4 was > 100 µM (inactive) each time. The GI50 in the experiment on NCI-H23, in the experiment on NCI-H460 and in the experiment on K562 was > 100 µM (inactive) in each case.
With `COc1cc(C2SCC(=O)N2c2cccc(Cl)c2)cc(OC)c1OC` (stereo unspecified), the GI50 is > 100 µM (inactive) in the experiment with SF-268; 72.3 µM in the experiment on HCT-15; 26.4 µM (inactive) in the experiment with BT-549; 29.5 µM (inactive) in the experiment with MDA-MB-435; > 100 µM (inactive) with SF-539; > 100 µM (inactive) with SK-MEL-28. Also, the GI50 in the experiment with EKVX was 76.9 µM (inactive); in the experiment on SK-OV-3 it was > 100 µM (inactive); in the experiment on MDA-MB-231 it was > 100 µM (inactive); in the experiment with SK-MEL-2, > 100 µM (inactive); in the experiment with A549, > 100 µM (inactive); with HCT-116, 58.9 µM (inactive). Also, the GI50 in the experiment with MOLT-4 was 37.2 µM (inactive); with NCI-H23, > 100 µM (inactive); with OVCAR-5, > 100 µM (inactive); in the experiment with NCI-H460, > 100 µM (inactive); in the experiment on K562, 36.1 µM (inactive).
`Cn1c(N)cc(=O)nc1N`: the GI50 was > 100 µM (inactive) with SF-268; above 100 µM in the experiment with HCT-15; > 100 µM (inactive) with BT-549; > 100 µM (inactive) in the experiment with MDA-MB-435; > 100 µM (inactive) with SF-539; > 100 µM (inactive) in the experiment on SK-MEL-28. Further, the GI50 in the experiment with EKVX, in the experiment with SK-OV-3, with MDA-MB-231, in the experiment with SK-MEL-2, in the experiment with A549 and with HCT-116 was > 100 µM (inactive) each time. Further, the GI50 in the experiment on MOLT-4, in the experiment with NCI-H23, in the experiment with OVCAR-5, in the experiment on NCI-H460 and with K562 was > 100 µM (inactive) throughout.
On to `COc1nc2c(c(=O)n1C)N(C(C)=O)C1C(N2)OCC(OC(C)=O)C1OC(C)=O` (stereo unspecified), for which the GI50 was > 10 µM (inactive) with SF-268; above 10 µM in the experiment on HCT-15; > 10 µM (inactive) in the experiment on BT-549; > 10 µM (inactive) with MDA-MB-435; > 10 µM (inactive) in the experiment with SF-539; > 10 µM (inactive) in the experiment with SK-MEL-28. In addition, the GI50 in the experiment with EKVX, in the experiment with SK-OV-3, in the experiment on MDA-MB-231, in the experiment with SK-MEL-2, in the experiment with A549 and in the experiment with HCT-116 was > 10 µM (inactive) throughout. For the same molecule, the GI50 in the experiment on MOLT-4, with NCI-H23, with OVCAR-5, in the experiment with NCI-H460 and with K562 was > 10 µM (inactive) throughout.
For `CCCCNc1nc(O)c2[nH]cnc2n1`, the GI50 was > 100 µM (inactive) with SF-268; above 100 µM in the experiment on HCT-15; > 100 µM (inactive) in the experiment with BT-549; > 100 µM (inactive) in the experiment on MDA-MB-435; > 100 µM (inactive) with SF-539; > 100 µM (inactive) with EKVX. Further, the GI50 in the experiment with SK-OV-3, with MDA-MB-231, in the experiment on SK-MEL-2, with A549, with HCT-116 and with MOLT-4 was > 100 µM (inactive) each time. Moreover, the GI50 with NCI-H23, with OVCAR-5, in the experiment with NCI-H460 and with K562 was > 100 µM (inactive) each time.
`C=C(C)[C@@H]1CC[C@]2(C(=O)O)CC[C@]3(C)[C@H](CC[C@@H]4[C@@]5(C)CC(=O)C(C)(C)[C@@H]5CC[C@]43C)[C@@H]12`: the GI50 in the experiment on SF-268 was 14.8 µM (inactive); with HCT-15, 8.67 µM; in the experiment on BT-549 it was 10.3 µM (inactive); in the experiment with MDA-MB-435, 8.02 µM (inactive); with SF-539 it was 6.08 µM (inactive); in the experiment with SK-MEL-28, 8.11 µM (inactive). For the same molecule, the GI50 was 9.35 µM (inactive) in the experiment on EKVX; 10 µM (inactive) with SK-OV-3; 5.65 µM (inactive) with MDA-MB-231; 4.52 µM (inactive) in the experiment with SK-MEL-2; 5.56 µM (inactive) in the experiment with A549; 4.01 µM (inactive) in the experiment with HCT-116. The GI50 in the experiment on MOLT-4 was 4.98 µM (inactive); in the experiment with NCI-H23 it was 10.9 µM (inactive); with OVCAR-5, 11 µM (inactive); in the experiment with NCI-H460 it was 4.95 µM (inactive); with K562, 6.38 µM (inactive).
